Test results from publication PMC9645390, “Amphiphilic stilbene derivatives attenuate the neurotoxicity of soluble Aβ42 oligomers by controlling their interactions with cell membranes” (Chemical Science, 2022).

Columns and labels:
[1] = biological target: Aβ oligomers; conditions: read-out: Kd, oligomer-selective probe; cited from earlier work
[2] = biological target: T1, Aβ42 fibrils (Homo sapiens, UniProt P05067); experiment: Fluorescence saturation binding assay with Aβ42 fibrils; conditions: Aβ42 fibrils
T1 construct: 1 mg of commercial Aβ42 monomer powder (from GL biochem) was dissolved in 1; purchased GL biochem
Experimental: (§1) Fig. 3 Binding constant measurements of ZY-5-OMe (left), ZY-5-MT (middle), ZY-5-DT (right) with Aβ42 fibrils (top), and oligomers (bottom). The measurements were performed in 10 mM phosphate buffered saline (PBS), pH 7.4. The Kd curves were fitted in GraphPad Prism with one site-specific binding model. Equation: Y = Bmax × X/(Kd + X). [Aβ42 fibrils] = [Aβ42 oligomers] = 5 μM.
(§2) Preparation of the Aβ42 Fibrils and Aβ42 Oligomers
(§3) Aβ42 fibrils: 1 mg of commercial Aβ42 monomer powder (from GL biochem) was dissolved in 1
(§4) mL 1,1,1,3,3,3-hexafluoro-2-propanol (HFIP) at room temperature and incubated for 1h. The
(§5) resulting solution was divided equally into two Eppendorf tubes. The solution in each Eppendorf
(§6) tube containing 0.5 mg Aβ42 monomer was then evaporated overnight and dried by vacuum
(§7) centrifuge to generate monomeric films. 100 μM Aβ42 fibrils solution was prepared by dissolving
(§8) the 0.5 mg monomeric films in 1.1 mL PBS buffer (with final DMSO concentration less than 1%)
(§9) and stiring at 37 °C for 3 days.
(§10) Aβ42 oligomers: The 0.5 mg monomeric films were dissolved in 1.1 mL PBS buffer (with final
(§11) DMSO concentration less than 1%) and incubated at 4 °C overnight. The resulting solution was
(§12) then centrifuged at 3000 rpm for 15 mins to remove the insoluble aggregates. The clear supernatant
(§13) was then used for the following experiments. […]
(§14) In Vitro Saturation Binding Studies with Aβ42 Fibrils and Aβ42 Oligomers
(§15) To a solution of increasing concentrations of compounds, a fixed concentration of the generated
(§16) aggregated Aβ42 fibrils or Aβ42 oligomers solutions (5 to 15 μM) was added to yield a total volume
(§17) of 100 μL. Nonspecific binding was determined without compounds. The mixture was incubated
(§18) for 15 min at room temperature. All fluorescence data were obtained on a SpectraMax M2e plate
(§19) reader (Molecular Devices).

[3] = biological target: T2, Aβ42 oligomers (Homo sapiens, UniProt P05067); experiment: Fluorescence saturation binding assay with Aβ42 oligomers
T2 construct: 1 mg of commercial Aβ42 monomer powder (from GL biochem) was dissolved in 1; purchased GL biochem
Experimental: as §1, §2, §3, §4, §5, §6, §7, §8, §9, §10, §11, §12, §13, §14, §15, §16, §17, §18, §19

[4] = biological target: T3, Aβ plaques in 5xFAD mice brain sections (Homo sapiens, UniProt P05067); experiment: Fluorescence imaging of 5xFAD mouse brain sections, colocalization with Congo Red; conditions: 9-month-old 5xFAD brain sections; compound 5 μM, Congo red 2.5 μM
T3 construct: aggregated Aβ species were commonly observed in brain sections from 5xFAD transgenic mice; tissue Jackson Laboratories; host or cells: brain sections of 9-month-old 5xFAD transgenic mice
Experimental: (§20) In order to confirm that the compounds can also bind to native Aβ species, brain sections collected from 9-month-old 5xFAD transgenic mice have been employed in the fluorescence imaging studies. […] The brain sections were first incubated with our compounds, followed by Congo Red (CR), which is a well-established fluorescent probe that can bind to Aβ plaques.[34] The treated brain sections were then imaged using fluorescence microscope. […] Immunostaining with the CF594-conjugated HJ 3.4 antibody (CF594-HJ3.4) was also performed to confirm that these six compounds can bind to Aβ species specifically in the brain sections (Fig. 5). Moreover, the log D values of the compounds were also measured by octanol-PBS partition assays.[35]
Fig. 4 Fluorescence microscopy images of 5xFAD mice brain sections co-incubated with amphiphilic compounds (top), Congo red (middle) and merged images (bottom, along with the Parson's correlation coefficients R). Concentrations: [amphiphilic compounds] = 5 μM, [Congo red] = 2.5 μM; scale bar: 125 μm. TEXT PRINTED IN THE PICTURE: ZY-5-MT: Merged R= 0.84 | ZY-12-DT: Merged R= 0.52 | ZY-12-OMe: Merged R= 0.77 | ZY-15-OMe: Merged R= 0.77 | ZY-17-DT: Merged R= 0.77 | ZY-17-OMe: Merged R= 0.72 […]
Histological Staining of 5×FAD Mice Brain Sections
5xFAD transgenic mice brain sections were blocked with bovine serum albumin (2% BSA in PBS, pH 7.4, 10 min). Then the mice brain sections were transferred to a PBS solution of the compound and incubated for 1 h. After which, the brain sections were transferred to a PBS solution of Congo Red or antibody HJ 3.4 (Professor David Holtzman, 1 μg/ml) and incubated for another 1 h. Then, the brain sections were treated with BSA again (5 min) followed by washing with PBS (3 × 2 min), DI water (3 × 2 min). Finally, the mice brain sections were mounted with non-fluorescent mounting media, and the images were obtained by using EVOS FL Auto 2. ImageJ Fiji program was used for colocalization analysis and determination of the Pearson’s correlation coefficient. The primary

[5] = Log D by octanol-PBS partition assay; assay type: physicochemical; conditions: pH 7.4, fluorescence readout
Experimental: as §20, with “assays.[35] […]” for “assays.[35]”
The Log D value was measured following a published procedure using slight modifications.4 In general, compounds in 0.5 mL octanol was subjected to partition with 0.5 mL octanol-saturated
PBS. The whole mixture was stirred vigorously for 5 min, and centrifuged at 2,000 rpm for 5 min.
The top octanol layer was separated for later fluorescence measurement. The remaining PBS layer was partitioned with 0.5 mL PBS-saturated octanol, and the second top octanol layer was then separated after vigorous stirring and centrifuging at 2,000 rpm for another 5 min. The two octanol layers’ fluorescence spectra were recorded. The log D value was calculated by the fluorescence intensity ratio at the compounds’ emission wavelength for the above two octanol extractions. […]

[6] = Alamar Blue cytotoxicity assay in N2a cells; assay type: cell-based, mouse; conditions: mouse, N2a (Neuro2A) neuroblastoma cells, 40 h, read-out: cell viability
Experimental: (§21) After confirming these amphiphilic compounds can bind to Aβ species both in vitro and ex vivo, we next investigated whether these compounds could attenuate the toxicity of the Cu–Aβ species, as the Cu^2+ ions were reported to promote the formation of neurotoxic soluble Aβ42 oligomers.[45,46] Firstly, the Alamar Blue cell viability assay was used to measure the cytotoxicity of the compounds at different concentrations ranging from 20 μM to 2 μM in mouse neuroblastoma N2a cells (Fig. 8). […] Considering its high binding affinity to both Aβ fibrils and oligomers, we also further tested its ability to alleviate Cu^2+–Aβ42-induced toxicity. […] The underlying mechanism is unclear, but we propose that these compounds might perform similarly to the toxic oligomers that bind to some cell membrane receptors or insert into the membrane lipids to form porous channels.
(§22) Alamar Blue assay was chosen for the cytotoxicity studies.3 Mouse neuroblastoma Neuro2A (N2A) cells were grown with DMEM/10% FBS in a petri dish at 37 °C in a humidified atmosphere with 5% CO2. Then N2A cells were seeded in a 96-well plate (1.0 × 10^4/well). After 24 h incubation, cell media was changed to DMEM/N-2, and N2A cells were incubated for another 1 h. Then the cells were treated with different concentrations of compounds for 40 h, Alamar Blue solution (10 μL) was added, and the cells were incubated for another 90 min at 37 °C. The fluorescence intensity of each well was measured at 590 nm (excitation wavelength = 560 nm).
(§23) For the Cu2+-Aβ-induced toxicity studies, cells were treated monomeric Aβ42, Cu2+, monomeric Aβ42 + Cu2+, and monomeric Aβ42 + Cu2+ + compounds, monomeric Aβ42 + Cu2+ + copper chelators (Me2HTACN or Me3TACN), respectively. After 40 h incubation, Alamar Blue solution (10 μL) was added, and the cells were incubated for another 90 min at 37 °C. The fluorescence intensity of each well was measured at 590 nm (excitation wavelength = 560 nm). […]

[7] = test system: mouse neuroblastoma N2a cells; experiment: Alamar Blue cytotoxicity assay in N2a cells; assay type: cell-based; conditions: 2 to 20 μM
Experimental: as §21, §22, §23

T2 sequence (P05067 672-713 limits assumed): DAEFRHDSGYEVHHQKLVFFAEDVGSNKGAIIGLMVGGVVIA
T1 sequence (P05067 672-713 limits assumed): as above
T3 sequence (P05067 672-713 limits assumed): as above

CCOc1cccc(C=Cc2cc(C)c3n2[B-](F)(F)[N+]2=C(CCC(=O)OCC(Cl)(Cl)Cl)C=CC2=C3)c1O [BD-Oligo]
Kd [1]: 480 nM

COCCOCCn1c2ccc(F)cc2c2cc(/C=C/c3cc[n+](CCO)c4ccccc34)ccc21 [F-SLOH]
Kd [1]: 660 nM

CCN(CC)c1ccc(/C=C/C2=[O+][B-](F)(F)OC(/C=C/c3ccc(N(CC)CC)nc3)=C2CCCOc2c(C)cccc2C)cn1 [CRANAD-102]
Kd [1]: 7.5 ± 10 nM

COc1cc(-c2ccc(/C=C/c3ccc(N(C)C)cc3)s2)cc(CN2CCN(C)CCN(C)CC2)c1O [ZY-12-OMe]
Kd ([2]; 10 mM PBS pH 7.4, one site-specific binding model, read-out: Kd, Fibrils): 390 nM
binding ratio, Fibrils ([2]; from cross point between plateau and initial slope): 8.5
Kd ([3]; Aβ42 oligomers, 10 mM PBS pH 7.4, one site-specific binding model): 320 nM
binding ratio, Oligomers ([3]; Aβ42 oligomers, from cross point between plateau and initial slope): 10.2
binding preference oligomers vs fibrils (from Kd values) ([3]; lower Kd for Aβ oligomers than Aβ fibrils): higher binding affinity to oligomers over fibrils
Pearson's correlation coefficient R, colocalization with Congo Red [4]: 0.77
logD [5]: 1.17 ± 0.026
viability at 40 h, 5 µM ([6]; at 5 μM): > 75%
viability at 40 h, 10 µM ([6]; at 10 μM): < 50%
cytotoxicity (in words) [7]: higher cytotoxicity than others
